Results from US6028197A, “Dibenzo[a,g]quinolizinium derivatives and the salts thereof” (Hanwha Corporation, priority 1998, dated 2000).

The compounds below were run against T1, sterol 14-reductase (Rattus norvegicus, UniProt A0ACM8Q6X4) (assay: Inhibition of sterol 14-reductase in rat liver microsomes). Conditions: microsomes; read-out: Enzyme Activity (relative in vitro activity for sterol 14-reductase, IC50 class).
T1 construct: microsome which was used as an enzyme source of sterol 14-reductase; from tissue; host or cells: liver microsomes of male Sprague-Dawley rats fed lovastatin and cholestyramine
T1 sequence (A0ACM8Q6X4 1-418): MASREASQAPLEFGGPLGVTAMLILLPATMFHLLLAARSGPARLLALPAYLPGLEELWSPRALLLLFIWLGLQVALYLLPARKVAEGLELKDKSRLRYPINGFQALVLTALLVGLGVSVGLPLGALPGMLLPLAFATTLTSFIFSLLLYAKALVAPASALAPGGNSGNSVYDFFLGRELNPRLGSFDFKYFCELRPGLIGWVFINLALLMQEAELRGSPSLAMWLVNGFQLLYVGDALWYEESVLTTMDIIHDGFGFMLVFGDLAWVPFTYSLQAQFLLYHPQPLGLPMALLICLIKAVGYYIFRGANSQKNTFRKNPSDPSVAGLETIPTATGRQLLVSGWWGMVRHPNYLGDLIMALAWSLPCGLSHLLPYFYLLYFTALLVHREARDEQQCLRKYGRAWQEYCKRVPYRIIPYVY
Assay type: biochemical
Method: 20 Male Sprague-Dawley rats weighing from 150 to 250 g have been fed for 7 days with a diet containing 0.1% (w/w) Lovastatin and 5% (w/w) Cholestyramine. The animals were fasted for 12 hours before excising liver tissues and then sacrificed by decapitation at midnight. An aqueous solution containing 0.25M of sucrose was injected into the hepatic portal vein to remove all the blood within the liver, and then, the liver was excised. The liver was homogenated with two volumes of buffer solution A (0.1M potassium phosphate, 1 mM reduced glutathione, 0.5 mM EDTA, 20% (v/v) glycerol, pH 7.4) by repeating pestles over 10 times and then, centrifuged with 900×g for 5 minutes to give a supernatant. The supernatant was centrifuged with 12,000×g for 20 minutes. The supernatant obtained was ultracentrifuged with 105,000×g for 90 minutes to give a microsome which was used as an enzyme source of sterol 14-reductase. Assay for sterol 14-reductase was carried out as follows:
60 mmol of 4,4-dimethyl-5α-cholesta-7,14-dien-3β-ol and 5,6-dihydrodibenzo-[a,g]quinolizinium salts (compound no. 2) dissolved in DMSO were added to an assay mixture (total volume 1.0 ml) containing 2 mg of the microsomal protein, 2 mM of NADPH and 25 mg of glucose plus 20 units of glucose oxidase with preincubations under nitrogen at 37° C. for 4 min. unless otherwise specified to establish anaerobic condition. Buffer A (0.1M potassium phosphate buffer, pH 7.4, including 1 mM reduced glutathione, 0.5 mM EDTA, and 20% (v/v) glycerol) used for incubation had been equilibrated with nitrogen, and nitrogen was exchanged for air in all sealed reaction flasks prior to the start of incubations. Incubation of the complete mixture was carried out anaerobically in sealed flasks for 10 min at 37° C. unless otherwise indicated. Incubations were terminated by the addition of 1 ml of ethanolic KOH followed by heating under reflux for 10 min. Sterols were extracted four times with 4 ml of petroleum ether, and the solvent was evaporated to dryness under a nitrogen stream. The resulting residue was dissolved in 200-500 μl of n-hexane for quantification by GLC at high sensitive attenuation. The activity of sterol 14-reductase was determined with the amount of the substrate wherein the double bonds of 14-carbon were reduced (for the amount reduced by 1 mg of the microsome protein for 1 minute).
An IC50 of 10 to 100 µM was found for `CCc1c2[n+](cc3c(OCc4ccc(C)c([N+](=O)[O-])c4)c(OC)ccc13)CCc1cc3c(cc1-2)OCO3` [Compound No. 49, 5,6-dihydro-2,3-methylenedioxybenzo[a]-13-ethyl-10-methoxy-9-(4-methyl-3-nitro)benzyloxybenzo[g]quinolizinium iodide] in this work.
With `CCc1c2[n+](cc3c(OCc4ccccc4C(F)(F)F)c(OC)ccc13)CCc1cc(OC)c(OC)cc1-2` [Compound No. 33, 5,6-dihydro-2,3-dimethoxybenzo[a]-13-ethyl-10-methoxy-9-(2-trifluoromethyl)benzyloxybenzo[g]quinolizinium chloride] the IC50 was > 100 µM.

Same assay, conditions: read-out: Enzyme Activity (relative in vitro activity for sterol 14-reductase, IC50 class)
An IC50 of 10 to 100 µM was found for `CCOc1cc2c(cc1OCC)-c1c(CC)c3ccc(OC)c(OCc4ccc(Cl)nc4)c3c[n+]1CC2` [Compound No. 58, 5,6-dihydro-2,3-diethoxybenzo[a]-9-(6-chloropyridinyl-3-yl)methoxy-13-ethyl-10-methoxybenzo [g]-quinolizinium chloride] in this work.
For `CCc1c2[n+](cc3c(OCc4cc(OC)c(OC)cc4[N+](=O)[O-])c(OC)ccc13)CCc1cc3c(cc1-2)OCO3` [Compound No. 48, 5,6-dihydro-2,3-methylenedioxybenzo[a]-9-(4,5-dimethoxy-2-nitro)benzyloxy-13-ethyl-10-methoxybenzo[g]-quinolizinium iodide], the IC50 was < 1 µM.
With `CCc1c2[n+](cc3c(OCc4cc(OC)cc(OC)c4)c(OC)ccc13)CCc1cc(OC)c(OC)cc1-2` [Compound No. 35, 5,6-dihydro-2,3-dimethoxybenzo[a]-9-(3,5-dimethoxy)benzyloxy-13-ethyl-10-methoxybenzo[g]quinolizinium chloride] the IC50 was > 100 µM.
An IC50 of 10 to 100 µM was found for `CCOc1cc2c(cc1OCC)-c1c(CC)c3ccc(OCC)c(OCc4ccc(C(F)(F)F)cc4)c3c[n+]1CC2` [Compound No. 62, 5,6-dihydro-2,3-diethoxybenzo[a]-10-ethoxy-13-ethyl-9-(4-trifluoromethyl)benzyloxybenzo[g]quinolizinium chloride] in this work.
An IC50 of 10 to 100 µM was found for `CCc1c2[n+](cc3c(OCc4cc([N+](=O)[O-])ccc4OC)c(OC)ccc13)CCc1cc(OC)c(OC)cc1-2` [Compound No. 7, 5,6-dihydro-2,3-dimethoxybenzo[a]-13-ethyl-10-methoxy-9-(2-methoxy-5-nitro)benzyloxybenzo[g]quinolizinium chloride] in this work.
An IC50 of 10 to 100 µM was found for `CCCCCCCCCCCCOc1c(OC)ccc2c(CC)c3[n+](cc12)CCc1cc2c(cc1-3)OCO2` [Compound No. 45, 5,6-dihydro-2,3-methylenedioxybenzo[a]-9-dodecoxy-13-ethyl-10-methoxybenzo[g]quinolizinium iodide] in this work.
An IC50 of 10 to 100 µM was found for `CCOc1cc2c(cc1OCC)-c1c(CC)c3ccc(OCC)c(OCc4c(F)c(F)c(C(F)(F)F)c(F)c4F)c3c[n+]1CC2` [Compound No. 64, 5,6-dihydro-2,3-diethoxybenzo[a]-10-ethoxy-13-ethyl-9-(2,3,5,6-tetrafluoro-4-trifluoromethyl)-benzyloxy benzo[g]quinolizinium chloride] in this work.
For `CCOc1cc2c(cc1OCC)-c1c(CC)c3ccc(OC)c(OCc4c(F)c(F)c(F)c(F)c4F)c3c[n+]1CC2` [Compound No. 56, 5,6-dihydro-2,3-diethoxybenzo[a]-13-ethyl-10-methoxy-9-(2,3,4,5,6-pentafluoro)benzyloxybenzo[g]quinolizinium chloride], the IC50 was < 1 µM.
With `CCc1c2[n+](cc3c(OCc4c(F)c(F)c(C(F)(F)F)c(F)c4F)c(OC)ccc13)CCc1cc(O)c(O)cc1-2` [Compound No. 60, 5,6-dihydro-2,3-dihydroxybenzo[a]-13-ethyl-10-methoxy-9-(2,3,5,6-tetrafluoro-4-trifluoromethyl)benzyloxybenzo[g]quinolizinium chloride] the IC50 was < 1 µM.
An IC50 of 10 to 100 µM was found for `CCc1c2[n+](cc3c(OCc4ccc(-c5ccccc5)cc4)c(OC)ccc13)CCc1cc3c(cc1-2)OCO3` [Compound No. 53, 5,6-dihydro-2,3-methylenedioxybenzo[a]-13-ethyl-10-methoxy-9-(4-phenyl)benzloxybenzo[g]quinolizinium iodide] in this work.
For `CCc1c2[n+](cc3c(OCc4cccc([N+](=O)[O-])c4C)c(OC)ccc13)CCc1cc(OC)c(OC)cc1-2` [Compound No. 24, 5,6-dihydro-2,3-dimethoxybenzo[a]-13-ethyl-10-methoxy-9-(2-methyl-3-nitro)benzyloxybenzo[g]quinolizinium chloride], the IC50 was > 100 µM.
An IC50 of 10 to 100 µM was found for `CCc1c2[n+](cc3c(OCc4ccc(CS(=O)(=O)c5ccccc5)cc4)c(OC)ccc13)CCc1cc(OC)c(OC)cc1-2` [Compound No. 38, 5,6-dihydro-2,3-dimethoxybenzo[a]-13-ethyl-10-methoxy-9-[4-(phenylsulfonylmethyl)benzyloxy]benzo[g]-quinolizinium chloride] in this work.
With `CCc1c2[n+](cc3c(OCc4cccc(Oc5ccccc5)c4)c(OC)ccc13)CCc1cc(OC)c(OC)cc1-2` [Compound No. 21, 5,6-dihydro-2,3-dimethoxybenzo[a]-13-ethyl-10-methoxy-9-(3-phenoxy)benzyloxybenzo[g]quinolizinium chloride] the IC50 was > 100 µM.
In the case of `CCc1c2[n+](cc3c(OCc4ccc(-c5ccccc5)cc4)c(OC)ccc13)CCc1cc(OC)c(OC)cc1-2` [Compound No. 16, 5,6-dihydro-2,3-dimethoxybenzo[a]-13-ethyl-10-methoxy-9-(4-phenyl)benzyloxybenzo[g]quinolizinium chloride], the IC50 is reported as < 1 µM.
An IC50 of 10 to 100 µM was found for `CCc1c2[n+](cc3c(OCc4ccc(OC(F)(F)F)cc4)c(OC)ccc13)CCc1cc(OC)c(OC)cc1-2` [Compound No. 42, 5,6-dihydro-2,3-dimethoxybenzo[a]-13-ethyl-10-methoxy-9-(4-trifluoromethoxy)benzyloxybenzo[g]quinolizinium chloride] in this work.
With `CCc1c2[n+](cc3c(OCc4c(F)c(F)c(F)c(F)c4F)c(OC)ccc13)CCc1cc3c(cc1-2)OCO3` [Compound No. 47, 5,6-dihydro-2,3-methylenedioxybenzo[a]-13-ethyl-10-methoxy-9-(2,3,4,5,6-pentafluoro)benzyloxybenzo[g]-quinolizinium iodide] the IC50 was < 1 µM.
In the case of `CCc1c2[n+](cc3c(OCc4ccc(C)c(C)c4)c(OC)ccc13)CCc1cc(OC)c(OC)cc1-2` [compound 27, 5,6-dihydro-2,3-dimethoxybenzo[a]-9-(3,4-dimethyl)benzyloxy-13-ethyl-10-methoxybenzo[g]quinolizinium chloride], the IC50 is reported as > 100 µM.
An IC50 of 10 to 100 µM was found for `CCc1c2[n+](cc3c(OCc4ccc5ccccc5n4)c(OC)ccc13)CCc1cc(OC)c(OC)cc1-2` [Compound No. 36, 5,6-dihydro-2,3-dimethoxybenzo[a]-13-ethyl-10-methoxy-9-(quinolin-2-yl)methoxybenzo[g]quinolizinium chloride] in this work.
With `CCc1c2[n+](cc3c(OCc4ccc(C(C)C)cc4)c(OC)ccc13)CCc1cc(OC)c(OC)cc1-2` [Compound No. 30, 5,6-dihydro-2,3-dimethoxybenzo[a]-13-ethyl-9-[4-(i-propyl)benzyloxy]-10-methoxybenzo[g]quinolizinium chloride] the IC50 was > 100 µM.
For `CCc1c2[n+](cc3c(OCc4ccc(OCc5ccccc5)cc4)c(OC)ccc13)CCc1cc(OC)c(OC)cc1-2` [Compound No. 14, 5,6-dihydro-2,3-dimethoxybenzo[a]-9-(4-benzyloxy)-benzyloxy-13-ethyl-10-methoxybenzo[g]quinolizinium chloride], the IC50 was > 100 µM.
For `C=CCOc1c(OC)ccc2c(CC)c3[n+](cc12)CCc1cc(OC)c(OC)cc1-3` [Compound No. 26, 5,6-dihydro-2,3-dimethoxybenzo[a]-13-ethyl-10-methoxy-9-allyloxybenzo[g]quinolizinium chloride], the IC50 was > 100 µM.
For `CCc1c2[n+](cc3c(OCc4cccc(OC)c4)c(OC)ccc13)CCc1cc(OC)c(OC)cc1-2` [Compound No. 12, 5,6-dihydro-2,3-dimethoxybenzo[a]-13-ethyl-10-methoxy-9-(3-methoxy)benzyloxybenzo[g]quinolizinium chloride], the IC50 was > 100 µM.
An IC50 of 10 to 100 µM was found for `CCc1c2[n+](cc3c(OCc4c(F)c(F)c(C(F)(F)F)c(F)c4F)c(OC)ccc13)CCc1cc3c(cc1-2)OCO3` [Compound No. 52, 5,6-dihydro-2,3-methylenedioxybenzo[a]-13-ethyl-10-methoxy-9-(2,3,5,6-tetrafluoro-4-trifluoromethyl)benzyloxybenzo[g]quinolizinium iodide] in this work.
With `C=Cc1ccc(COc2c(OC)ccc3c(CC)c4[n+](cc23)CCc2cc(OC)c(OC)cc2-4)cc1` [Compound No. 8, 5,6-dihydro-2,3-dimethoxybenzo[a]-13-ethyl-10-methoxy-9-(4-vinyl)benzyloxybenzo[g]quinolizinium chloride] the IC50 was > 100 µM.
An IC50 of 10 to 100 µM was found for `CCOc1cc2c(cc1OCC)-c1c(CC)c3ccc(OCC)c(OCc4cccc(C(F)(F)F)c4)c3c[n+]1CC2` [Compound No. 63, 5,6-dihydro-2,3-diethoxybenzo[a]-10-ethoxy-13-ethyl-9-(3-trifluoromethyl)benzyloxyenzo[g]quinolizinium chloride] in this work.
An IC50 of 10 to 100 µM was found for `CCc1c2[n+](cc3c(OCc4cccc(C(F)(F)F)c4)c(OC)ccc13)CCc1cc3c(cc1-2)OCO3` [Compound No. 51, 5,6-dihydro-2,3-methylenedioxybenzo[a]-13-ethyl-10-methoxy-9-(3-trifluoromethyl)benzyloxybenzo[g]quinolizinium iodide] in this work.
